The values below are quoted from earlier work in the CATMoS acute toxicity set (Mansouri et al. 2021).

Where “and” joins values, the source holds several entries; their conditions need not be identical. Identical values can stand only once. Where a SMILES comes first, the peptide text is derived from it. Bridges are numbered along the chain shown (N, C = ends). [ ]: non-standard residue; d: D form. The star is where a group is joined. X1 = CC[C@H](C)CCCCC(=O)*; Dab = NCC[C@H](N)C(=O)O

A short description of this data set: rat acute oral toxicity. Particulars: in vivo.
For orientation: LD50 means the dose expected to kill half of the subjects tested. On to `COC(=O)CC(=O)OC`, for which the LD50 is 5330 mg/kg.

On to `NCC(O)c1ccc(O)cc1` (centres undefined), for which the LD50 is 1240 mg/kg and 1090 mg/kg.

As to `O=C(O)CCCCCCl`, the LD50 was 3080 mg/kg.

As for `CC(C)CCCCCOP(OCCCCCC(C)C)OCCCCCC(C)C`, the LD50 was 9200 mg/kg.

For the compound `CCSP(=O)(OC)OC`, the 50% lethal dose (LD50) is 13.8 mg/kg.

Take `COc1cc2c(cc1OC)C1CC(=O)C(CCC#N)CN1CC2` (centres undefined): the LD50 was 620 mg/kg.

Regarding `CCCC(C)OC(N)=O` (centres undefined), the LD50 is 421 mg/kg.

In the case of `COc1ccc2c(c1)N(C[C@H](C)CN(C)C)c1ccccc1S2`, the LD50 was 1100 mg/kg.

As for `Cc1ccc(S(=O)(=O)/C=C/C#N)cc1`, the LD50 is 1440 mg/kg.

`O=Cc1cccs1`: the LD50 was 915 mg/kg.

For the compound `Cc1c(C(=O)O)nnn1-c1ccccc1`, the LD50 is 1500 mg/kg.

For `Clc1ccc2c(c1)C(N1CCNCC1)=Nc1ccccc1O2`, the LD50 was 313 mg/kg.

Turning to `CCON(CC)N=O`, the LD50 was 1000 mg/kg.

As to `Cc1ccc(=O)n(CSP(=S)(OC(C)C)OC(C)C)n1`, the LD50 was 155 mg/kg.

In the case of `FC(F)(F)c1nc2c(Br)cc(Br)cc2[nH]1`, the LD50 was 5.98 mg/kg.

In the case of `COCCc1ccccc1`, the LD50 is 4100 mg/kg.

With `CN(CO)C(=S)S`, the median lethal dose (LD50) was 590 mg/kg.

Turning to `O=C1CN(/N=C/c2ccc([N+](=O)[O-])o2)C(O)=N1`, the LD50 is 1490 mg/kg.

Regarding `NS(=O)(=O)CCNC(=O)N(CCCl)N=O`, the LD50 is 40 mg/kg.

As for `CCCCCCCCCCCC(=O)N(CCO)CCO`, the LD50 is 2700 mg/kg.

As to `O=C1CCc2cc(C=CCN3CCN(c4cccc(Cl)c4)CC3)ccc2N1`, the LD50 is 500 mg/kg.

Take `CCOC1CC2CN3CCc4c([nH]c5cc(OC)ccc45)C3CC2C(C(=O)OC)C1OC` (centres undefined): the LD50 was 187 mg/kg.

For `CC(=O)OC(C)=O`, the LD50 is 1780 mg/kg.

On to `Cc1ccc2sc(C)nc2c1`, for which the LD50 was 957 mg/kg.

Take `S=C=Nc1ccc(Br)cc1`: the LD50 was 400 mg/kg.

As for `C=C(C)c1cccc(C(C)(C)N=C=O)c1`, the LD50 was 3100 mg/kg.

In the case of `COP(=O)(OC)Oc1ccc(S(C)(=O)=O)c(C)c1`, the LD50 is 30 mg/kg.

`CC(=O)Nc1ccc2nc(C(F)(F)F)[nH]c2c1`: the LD50 is 23.8 mg/kg.

As for `CCNc1ccc(C(=C2C=CC(=[N+](C)C)C=C2)c2ccc(N(C)C)cc2)c2ccccc12`, the LD50 is 960 mg/kg.

`COc1cnc(C)s1`: the LD50 is 1250 mg/kg.

Regarding `CCCN=C(NCCC)C(OCC)c1ccc(Cl)cc1` (centres undefined), the LD50 was 47 mg/kg.

In the case of `ClCc1ccccc1CCl`, the LD50 was 2260 mg/kg.

As for `C=C(C)C(=O)OC(=O)COC(C)C`, the LD50 is 9000 mg/kg.

As to `CCN(CC)CCOC(=O)C1(C2CCCCC2)CCCCC1`, the LD50 was 1290 mg/kg.

Regarding `CC(C)(CO)NCC(O)c1ccccc1` (centres undefined), the LD50 was 2080 mg/kg.

Regarding `CCCCC(CC)OCCOCCO` (centres undefined), the LD50 is 2940 mg/kg.

As for `C[C@H](CCc1ccccc1)NC[C@H](O)c1ccc(O)c(C(N)=O)c1`, the LD50 is 1030 mg/kg.

Consider `NCCCC[C@H](N)C(=O)O`, for which the 50% lethal dose (LD50) was 11400 mg/kg and 10000 mg/kg.

Consider `CC(C)Cc1ccc2ccccc2n1`, for which the LD50 was 1020 mg/kg.

With `NCc1ccc(S(N)(=O)=O)cc1`, the LD50 is 9210 mg/kg.

As to `CCN(C)CCC(CC=C(C)C)(C(N)=O)c1cccc2ccccc12` (centres undefined), the LD50 was 71 mg/kg.

Take `NC(=S)Nc1ccc(-c2ccc(NC(N)=S)cc2)cc1`: the LD50 was 200 mg/kg.

On to `C=CCc1ccc(OC(C)=O)c(OC)c1`, for which the LD50 was 1670 mg/kg.

Turning to `CCC1(c2cccc(O)c2)CCCCN(C)C1` (centres undefined), the LD50 was 1260 mg/kg.

In the case of `Cc1cccc(C)c1N/N=C(/N)N(C)C`, the LD50 was 980 mg/kg.

Take `C=CCOC(=O)Nc1ccc(NCc2ccc(F)cc2)nc1N`: the LD50 is 1030 mg/kg.

Regarding `CC(C)(OO)c1cccc(C(C)(C)OO)c1`, the LD50 is 1500 mg/kg.

Regarding `FC(F)(F)c1cccc(-n2nc(OCCCN3CCCCCC3)c3cccnc32)c1`, the LD50 is 780 mg/kg.

Consider `c1ccc(Cc2ccccc2)cc1`, for which the LD50 was 2250 mg/kg.

Consider `O=S(=O)(O)c1ccccc1`, for which the LD50 was 2050 mg/kg.

Turning to `COc1cc(Cc2cnc(N)nc2N)cc(OC)c1OC`, the LD50 was 200 mg/kg.

For the compound `CCCCOC(C1=NCCCN1)c1ccccc1` (centres undefined), the LD50 is 310 mg/kg.

Consider `O=C(CCNNC(=O)c1ccncc1)NCc1ccccc1`, for which the LD50 is 1700 mg/kg.

As for `C=CCSC(C)C1(CC=C)C(=O)N=C(O)NC1=O` (centres undefined), the LD50 was 346 mg/kg.

`C=C(C)C(=O)OCCSCC`: the LD50 was 7400 mg/kg.

As to `CN(C)C1CC(c2ccccc2)c2ccccc21` (centres undefined), the LD50 is 176 mg/kg.

For `CC(=O)OCC(C)OC(C)=O` (centres undefined), the LD50 is 13500 mg/kg.

Turning to `CNc1nc(NC(C)C)nc(OC)n1`, the LD50 was 2400 mg/kg.

With `N#CC(C#N)=C(C#N)C#N`, the LD50 is 5 mg/kg.

Take `CC1C(=NOC(=O)N(C)SC(Cl)(Cl)Cl)SCC(=O)N1C` (centres undefined): the LD50 was 3.54 mg/kg.

Consider `C=CC(=O)OC(C)(C)C`, for which the LD50 was 1050 mg/kg.

On to `CN(C)C(=O)c1ccccc1O`, for which the LD50 is 2300 mg/kg.

As to `O=P(O)(O)CN(CC(O)CN(CP(=O)(O)O)CP(=O)(O)O)CP(=O)(O)O`, the LD50 is 4300 mg/kg.

As to `O=C(CCl)CC(=O)Nc1ccccc1`, the LD50 was 1820 mg/kg.

`C=C(C)C1CCC(C)(OP(=S)(OC)OC)CC1` (centres undefined): the LD50 is 500 mg/kg.

Take `C1COC(NC(C2CC2)C2CC2)=N1`: the LD50 was 295 mg/kg.

Regarding `CS(=O)(=O)c1ccccc1`, the LD50 was 1470 mg/kg.

On to `C=CC(=O)OCCOCCOCCOCCOC(=O)C=C`, for which the LD50 is 813 mg/kg.

Turning to `CC[C@H](C)CCCCC(=O)N[C@@H](CCN)C(=O)N[C@H](C(=O)N[C@@H](CCN)C(=O)N[C@H]1CCNC(=O)[C@@H]([C@H](C)O)NC(=O)[C@H](CCN)NC(=O)[C@H](CCN)NC(=O)[C@H](CC(C)C)NC(=O)[C@@H](CC(C)C)NC(=O)[C@H](CCN)NC1=O)[C@@H](C)O` (X1-[Dab]T[Dab][Dab][Dab][dL]L[Dab][Dab][dT]; lactam 4-C), the LD50 was 121 mg/kg.

Consider `C=CC(O)C#N` (centres undefined), for which the LD50 was 65 mg/kg.

Turning to `CCN1CCC(=C(c2ccccc2)c2ccccc2)C1`, the LD50 is 166 mg/kg and 450 mg/kg.

For `NCCC[C@H](N)C(=O)O`, the LD50 was 10000 mg/kg.

For the compound `Nc1cc2c(S(=O)(=O)O)cc(S(=O)(=O)O)cc2cc1S(=O)(=O)O`, the 50% lethal dose (LD50) was 13000 mg/kg.

Take `CCCCC(=O)Cc1ccccc1`: the LD50 is 4400 mg/kg.

As to `O=C(Oc1ccc(Cl)cc1Cl)N1CCCC1`, the LD50 is 2200 mg/kg.

For the compound `Cc1c(Br)cc2[nH]c(C(F)(F)F)nc2c1[N+](=O)[O-]`, the LD50 was 83 mg/kg.

As for `CC(=O)Nc1ccc(CC(=O)O)cc1`, the LD50 was 14800 mg/kg.

As to `CNC(=O)Oc1ccc(C)c2c1OC(C)(C)C2`, the LD50 was 12 mg/kg.

For `CC(C)Oc1ccccc1N`, the LD50 was 840 mg/kg.

Take `CNC(=O)ON=C1CSCS1`: the LD50 is 13 mg/kg.

As for `COc1ccc(OC)c(C(O)CNC(=O)CN)c1` (centres undefined), the LD50 was 68.8 mg/kg.

Regarding `CC(C=CC=C(C)C=CC(=O)C1(C)CC(O)CC1(C)C)=CC=CC=C(C)C=CC=C(C)C=CC1=C(C)CC(O)CC1(C)C` (centres undefined), the LD50 is 11200 mg/kg.

Turning to `Cc1c(C)c2c(c(C)c1O)CCC(C)(C(=O)O)O2` (centres undefined), the LD50 is 4300 mg/kg.

In the case of `O=Cc1ccccc1-c1ccccc1C=O`, the 50% lethal dose (LD50) is 2830 mg/kg.

As to `CNS(=O)(=O)c1cc(OC)c(N)cc1C`, the LD50 is 91.5 mg/kg.

As for `CCSP(=O)(CCl)SCC`, the LD50 is 35 mg/kg.

In the case of `CC(C)OP(=S)(OC(C)C)SCSC(C)C`, the LD50 was 5 mg/kg.

Take `O=[N+]([O-])C1(Br)COCOC1`: the LD50 is 455 mg/kg.

Turning to `O=C1CC(c2cccc(Br)c2)C(=O)N1` (centres undefined), the median lethal dose (LD50) is 1750 mg/kg.
